Laboratory results published in article PMC7748245, “Identification and Optimization of a Series of 8-Hydroxy Naphthyridines with Potent In Vitro Antileishmanial Activity: Initial SAR and Assessment of In Vivo Activity” (Journal of Medicinal Chemistry, 2020).
Read-outs that look alike come from different tables or passages of the source.

Assays:
[1] = system: L. donovani amastigotes; test: Intramacrophage L. donovani assay (Ld InMac); type: cell-based, Leishmania donovani; details: Leishmania donovani; for IC50: supplement sheet, read-out: LdInMac pIC50 (converted)
Procedure: (§1) This assay was conducted as previously described,[8] except for compound exposure time, which was 96 h instead of 72 h.

[2] = system: THP-1 cells; test: THP-1 host cell toxicity readout of the intramacrophage assay; type: cell-based, human; details: for IC50: Homo sapiens, THP-1, supplement sheet, read-out: THP1 pIC50 (converted); for EC50: human THP-1 host cells, read-out: THP-1 (pEC50) (converted)
Procedure: as §1

[3] = Mouse liver microsomal intrinsic clearance; type: in vitro ADME; details: for Cli (mouse liver microsomal intrinsic clearance): mouse liver microsomes; for Cli (mouse, ml/min/g): supplement sheet
Procedure: (§2) These assays were conducted as previously described.[23]

[4] = system: cell health (mitochondrial integrity); test: GSK eXP: phenotypic cell health assay; type: cell-based; details: GSK eXP panel
Description: (§3) First, the compounds which were poorly tolerated in mice, 28 and 34, were screened against a panel of >30 receptors with known links to in vivo toxicity (GSK-enhanced cross-screen panel (eXP)).[18] […] From this, it was not clear whether the effects seen in the receptor screen were related to the observed in vivo toxicity.

[5] = molecular target: T1, monoamine oxidase A (Homo sapiens, UniProt P21397); test: GSK enhanced cross-screen panel (eXP): monoamine oxidase A; type: biochemical; details: read-out: pIC50 against monoamine oxidase A (converted)
T1 sequence (P21397 1-527): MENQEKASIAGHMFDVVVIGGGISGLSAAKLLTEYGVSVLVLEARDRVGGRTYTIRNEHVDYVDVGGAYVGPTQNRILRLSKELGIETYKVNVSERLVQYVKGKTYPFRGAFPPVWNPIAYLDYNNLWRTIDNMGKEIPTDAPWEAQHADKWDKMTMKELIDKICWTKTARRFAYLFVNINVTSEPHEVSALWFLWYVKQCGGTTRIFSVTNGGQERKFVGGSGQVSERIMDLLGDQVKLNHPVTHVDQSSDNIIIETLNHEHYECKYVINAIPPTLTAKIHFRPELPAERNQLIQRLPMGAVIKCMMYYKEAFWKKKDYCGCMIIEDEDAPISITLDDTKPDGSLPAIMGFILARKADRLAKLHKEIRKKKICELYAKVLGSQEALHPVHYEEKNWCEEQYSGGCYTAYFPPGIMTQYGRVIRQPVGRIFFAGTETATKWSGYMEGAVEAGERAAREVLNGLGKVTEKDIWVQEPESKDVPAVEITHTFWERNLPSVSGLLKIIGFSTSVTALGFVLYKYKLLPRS
Description: as §3

[6] = Mouse PK study 50 mg/kg ip (metabolites, tolerability); type: in vivo; details: mouse
Procedure: Since 7 itself was metabolically unstable (Cli = 10 mg/mL/g), we became interested in transferring the SAR from the triazole subseries (e.g., 16) to investigate its impact on metabolic stability, with a particular focus on glucuronidation. To this end, we synthesized 26 (Table 5) as a direct analogue of triazole 16.
Figure 3 PK profile of 26, showing levels of parent, glucuronide adduct, major hydroxylated metabolite, and other minor metabolites. Data are based on two replicates, with error bars representing the range of the data from the two runs. Blood/water (30 μL, 1:2) were collected following 50 mg/kg ip administration to Balb C mice at prescribed time points; 90 μL of acetonitrile (ACN) was then added to each sample and the samples were centrifuged for 5 min at 7000 rpm; 90 μL of supernatant was removed and added to 50 μL of Milli-Q water before ultrahigh-performance liquid chromatography–quadrupole time-of-flight (UPLC Q-TOF) analysis.
We synthesized a set of benzyl amides, where 4-methoxy analogue 27 and α-methyl-4-fluoro analogue 28 both gave very encouraging profiles, meeting progression criteria in terms of potency, metabolic stability, and clearance. […] Due to its impressive in vitro potency, we selected 28 for progression into an in vivo PK study.
We noted that a related compound from Merck, L-870,810 (30),[17] was reported as a clinical candidate targeting HIV integrase, which progressed as far as phase II clinical trials. […] Also, introducing substituents into the 5-naphthyridyl position had been a successful strategy for improving metabolic stability and potency in the triazole subseries. We therefore investigated a range of 5-substituted naphthyridyl analogues (Table 5). THP-amine 31 and morpholine 32 lost potency compared to parent compound 7, so we switched attention back to 5-phenylnaphthyridines. […] Further combinations of nonaromatic amides with differently substituted 5-phenylnaphthyridines were synthesized, and while changing the phenyl substituent gave flat SAR and no advantage over previous compounds, exploration of the amide led to 34 with a trans-4-methoxycyclopropylamide. Compound 34 gave a good balance of potency, solubility, and microsomal stability and was therefore selected for a mouse PK study.

[7] = Kinetic aqueous solubility; type: physicochemical; details: for solubility: aqueous medium (not further specified), supplement sheet; for solubility kinetic: read-out: Aq Solubility (kinetic aqueous solubility)
Procedure: as §2

[8] = Chrom Log D pH7.4; type: physicochemical; details: pH 7.4
Procedure: This assay was conducted as previously described.[11]

[9] = molecular target: bile salt export pump (BSEP) (Homo sapiens, UniProt O95342); test: GSK eXP: bile salt export pump (BSEP) assay; type: biochemical; details: GSK eXP panel; read-out: pIC50 in BSEP assay (converted)
Sequence of bile salt export pump (BSEP) (O95342 whole entry, species assumed): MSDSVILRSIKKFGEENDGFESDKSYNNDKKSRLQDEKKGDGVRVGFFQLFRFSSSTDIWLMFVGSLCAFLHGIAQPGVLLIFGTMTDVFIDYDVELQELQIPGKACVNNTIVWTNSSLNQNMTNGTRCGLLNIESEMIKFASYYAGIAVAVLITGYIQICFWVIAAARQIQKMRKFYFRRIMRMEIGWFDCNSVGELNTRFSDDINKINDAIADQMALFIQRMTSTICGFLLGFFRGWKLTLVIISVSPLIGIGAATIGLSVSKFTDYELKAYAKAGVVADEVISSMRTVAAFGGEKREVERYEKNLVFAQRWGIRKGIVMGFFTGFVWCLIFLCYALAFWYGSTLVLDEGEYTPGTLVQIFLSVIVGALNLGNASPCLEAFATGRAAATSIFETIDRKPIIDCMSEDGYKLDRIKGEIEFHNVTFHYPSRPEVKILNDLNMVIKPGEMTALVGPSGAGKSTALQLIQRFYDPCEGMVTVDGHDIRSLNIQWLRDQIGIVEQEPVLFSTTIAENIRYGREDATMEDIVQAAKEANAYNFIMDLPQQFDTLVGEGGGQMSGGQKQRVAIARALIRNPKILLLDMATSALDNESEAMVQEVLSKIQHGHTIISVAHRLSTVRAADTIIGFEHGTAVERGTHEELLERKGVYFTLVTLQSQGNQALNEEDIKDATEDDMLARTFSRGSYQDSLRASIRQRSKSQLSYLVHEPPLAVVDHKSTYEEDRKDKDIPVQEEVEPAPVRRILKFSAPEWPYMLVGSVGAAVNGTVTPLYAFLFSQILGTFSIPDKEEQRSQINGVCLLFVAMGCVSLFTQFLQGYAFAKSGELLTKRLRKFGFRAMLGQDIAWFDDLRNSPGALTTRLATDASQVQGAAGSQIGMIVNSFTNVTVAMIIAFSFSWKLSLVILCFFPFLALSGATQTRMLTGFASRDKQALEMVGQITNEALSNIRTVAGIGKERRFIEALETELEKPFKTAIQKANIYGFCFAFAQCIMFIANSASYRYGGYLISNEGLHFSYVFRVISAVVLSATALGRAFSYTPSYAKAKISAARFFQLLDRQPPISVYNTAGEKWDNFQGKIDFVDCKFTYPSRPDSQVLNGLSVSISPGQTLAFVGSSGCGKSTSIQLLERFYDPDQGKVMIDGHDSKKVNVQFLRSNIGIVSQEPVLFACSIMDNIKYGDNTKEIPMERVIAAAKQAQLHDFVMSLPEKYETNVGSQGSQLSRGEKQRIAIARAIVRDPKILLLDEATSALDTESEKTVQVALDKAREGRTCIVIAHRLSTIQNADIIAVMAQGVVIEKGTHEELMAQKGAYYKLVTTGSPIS
Description: as §3

[10] = system: phospholipidosis; test: GSK eXP: phospholipidosis assay; type: cell-based; details: GSK eXP panel
Description: as §3

[11] = chromatographic (HPLC retention) system, supplement sheet, read-out: ChromLogD
[12] = chromatographic system (Chrom Log D), read-out: ChromLogDpH7.4

Compound | IC50 [1] | IC50 [2] | EC50 [2] | Cli (mouse liver microsomal intrinsic clearance) [3] | Cli (mouse, ml/min/g) [3] | IC50 ([4]; read-out: pIC50 in phenotypic cell health assay (converted)) | IC50 [5] | time to symptoms requiring termination [6] | tolerability in mouse PK study [6] | solubility [7] | solubility kinetic [7] | chromatographic logD [8, 11] | chromatographic logD [8, 12] | EC50 ([1]; THP-1, 96 h, L. donovani amastigotes in THP-1 cells, 96 h compound exposure, read-out: Ld InMac (pEC50) (converted)) | pIC50 in phenotypic cell health assay [4] | IC50 [9] | time after which study was terminated [6] | activity in phospholipidosis assay [10]
CC(NC(=O)c1ncc2cccnc2c1O)c1ccc(F)cc1 (stereo not shown) [Compound 28, N-(1-(4-Fluorophenyl)ethyl)-8-hydroxy-1,6-naphthyridine-7-carboxamide] | 0.158 µM | 5.01 µM | 5.01 µM | 3.7 mL/min/g | 3.7 mL/min/g | 12.6 µM | 3.98 µM | ≤ 3.5 h | proved to be toxic | > 250 µg/mL | > 250 µM | 5.1 | 5.1 |  |  |  |  | 
COc1ccccc1-c1nc(C(=O)N[C@H]2CC[C@H](OC)CC2)c(O)c2ncccc12 [Compound 34, 8-Hydroxy-N-(trans-4-methoxycyclohexyl)-5-(2-methoxyphenyl)-1,6-naphthyridine-7-carboxamide] | 1 µM | 39.8 µM | 39.8 µM | 1.4 mL/min/g | 1.4 mL/min/g |  |  |  | displayed the similar symptoms as with compound 28 | > 250 µg/mL | > 250 µM | 5.7 | 5.7 | 1 µM | showed potency in the cell health assay | 15.8 µM | 60 min | activity
